Data reported in PubChem BioAssay AID248 (DTP/NCI, 2004).
Values joined by “and” are separate entries in the source; they are usually repeats but may differ in a detail not shown here. Equal entries are not always repeated. Toxic doses and inconclusive results are not listed.

System: L1210 leukemia ip in BDF1 mice, survival T/C
Assay: NCI In Vivo Anticancer Drug Screen. Data for tumor model L1210 Leukemia (intraperitoneal) in B6D2F1 (BDF1) mice
Conditions: endpoint: mean survival time, higher = longer survival
How it was run: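 Tumor was transplanted into mice, which were then dosed with test compound or vehicle alone. Survival was recorded for each group, and the treated figure was expressed relative to the control figure.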

[1] = dose: 75.0 mg/kg/injection, schedule: Q01DX001 (ip), vehicle: saline
[2] = dose: 100.0 mg/kg/injection, schedule: Q01DX001 (ip), vehicle: saline
[3] = dose: 100.0 mg/kg/injection, schedule: Q04DX003 (ip), vehicle: Klucel (hydroxypropylcellulose) (HPC)
[4] = dose: 200.0 mg/kg/injection, schedule: Q04DX003 (ip), vehicle: Klucel (hydroxypropylcellulose) (HPC)
[5] = dose: 100.0 mg/kg/injection, schedule: Q01DX009 (ip), vehicle: saline
[6] = dose: 200.0 mg/kg/injection, schedule: Q01DX009 (ip), vehicle: saline
[7] = dose: 400.0 mg/kg/injection, schedule: Q01DX009 (ip), vehicle: saline
[8] = dose: 200.0 mg/kg/injection, schedule: Q01DX001 (ip), vehicle: saline
[9] = dose: 400.0 mg/kg/injection, schedule: Q01DX001 (ip), vehicle: saline
[10] = dose: 100.0 mg/kg/injection, schedule: Q04DX003 (ip), vehicle: saline
[11] = dose: 200.0 mg/kg/injection, schedule: Q04DX003 (ip), vehicle: saline
[12] = dose: 400.0 mg/kg/injection, schedule: Q04DX003 (ip), vehicle: saline
[13] = dose: 100.0 mg/kg/injection, schedule: Q01DX009 (ip), vehicle: Klucel (hydroxypropylcellulose) (HPC)
[14] = dose: 200.0 mg/kg/injection, schedule: Q01DX009 (ip), vehicle: Klucel (hydroxypropylcellulose) (HPC)
[15] = dose: 400.0 mg/kg/injection, schedule: Q01DX009 (ip), vehicle: Klucel (hydroxypropylcellulose) (HPC)
[16] = dose: 400.0 mg/kg/injection, schedule: Q04DX003 (ip), vehicle: Klucel (hydroxypropylcellulose) (HPC)

SMILES: CN(C)CCCN1c2ccccc2Sc2ccccc21
- T/C (dose: 4.6 mg/kg/injection, schedule: Q01DX009 (ip), vehicle: saline): 98 % of control
- T/C (dose: 9.3 mg/kg/injection, schedule: Q01DX009 (ip), vehicle: saline): 105 % of control
- T/C (dose: 9.37 mg/kg/injection, schedule: Q01DX009 (ip), vehicle: saline): 96 % of control
- T/C (dose: 18.0 mg/kg/injection, schedule: Q01DX001 (ip), vehicle: saline): 107 % of control
- T/C (dose: 18.0 mg/kg/injection, schedule: Q01DX009 (ip), vehicle: saline): 112 % of control
- T/C (dose: 18.0 mg/kg/injection, schedule: Q04DX003 (ip), vehicle: saline): 116 % of control
- T/C (dose: 18.75 mg/kg/injection, schedule: Q01DX009 (ip), vehicle: saline): 104 % of control and 108 % of control
- T/C (dose: 18.75 mg/kg/injection, schedule: Q04DX003 (ip), vehicle: saline): 115 % of control
- T/C (dose: 37.0 mg/kg/injection, schedule: Q01DX001 (ip), vehicle: saline): 110 % of control
- T/C (dose: 37.0 mg/kg/injection, schedule: Q01DX009 (ip), vehicle: saline): 112 % of control
- T/C (dose: 37.0 mg/kg/injection, schedule: Q04DX003 (ip), vehicle: saline): 115 % of control
- T/C (dose: 37.5 mg/kg/injection, schedule: Q01DX009 (ip), vehicle: saline): 98 % of control and 122 % of control
- T/C (dose: 37.5 mg/kg/injection, schedule: Q04DX003 (ip), vehicle: saline): 102 % of control
- T/C [1]: 105 % of control
- T/C (dose: 75.0 mg/kg/injection, schedule: Q01DX009 (ip), vehicle: saline): 122 % of control
- T/C (dose: 75.0 mg/kg/injection, schedule: Q04DX003 (ip), vehicle: saline): 102 % of control and 116 % of control

SMILES: CCCCS(=O)(=O)N(CCC)CCC
- T/C (dose: 100.0 mg/kg/injection, schedule: Q04DX002 (ip), vehicle: saline with Tween-80): 93 % of control
- T/C (dose: 200.0 mg/kg/injection, schedule: Q04DX002 (ip), vehicle: saline with Tween-80): 93 % of control
- T/C (dose: 400.0 mg/kg/injection, schedule: Q04DX002 (ip), vehicle: saline with Tween-80): 97 % of control

SMILES: CC(=O)OCCN1CCN(CCCN2c3ccccc3Sc3ccc(C(F)(F)F)cc32)CC1
- T/C (dose: 9.5 mg/kg/injection, schedule: Q04DX003 (ip), vehicle: saline with Tween-80): 114 % of control
- T/C (dose: 12.5 mg/kg/injection, schedule: Q04DX003 (ip), vehicle: saline): 106 % of control
- T/C (dose: 22.0 mg/kg/injection, schedule: Q04DX003 (ip), vehicle: saline with Tween-80): 120 % of control and 123 % of control
- T/C (dose: 25.0 mg/kg/injection, schedule: Q04DX003 (ip), vehicle: saline): 116 % of control
- T/C (dose: 33.0 mg/kg/injection, schedule: Q04DX003 (ip), vehicle: saline sonified): 93 % of control
- T/C (dose: 33.3 mg/kg/injection, schedule: Q04DX003 (ip), vehicle: saline with Tween-80): 102 % of control
- T/C (dose: 50.0 mg/kg/injection, schedule: Q04DX003 (ip), vehicle: saline with Tween-80): 150 % of control
- T/C [2]: 106 % of control

SMILES: ClCC[N+]12CC[N+](CCCl)(CC1)C2
- T/C [1]: 105 % of control
- T/C (dose: 150.0 mg/kg/injection, schedule: Q01DX001 (ip), vehicle: saline): 120 % of control

SMILES: CC(=O)Nc1cccc(OC(=O)Nc2ccc(F)c(Cl)c2)c1
- T/C (dose: 100.0 mg/kg/injection, schedule: Q04DX002 (ip), vehicle: Klucel (hydroxypropylcellulose) (HPC)): 96 % of control
- T/C (dose: 200.0 mg/kg/injection, schedule: Q04DX002 (ip), vehicle: Klucel (hydroxypropylcellulose) (HPC)): 89 % of control
- T/C (dose: 400.0 mg/kg/injection, schedule: Q04DX002 (ip), vehicle: Klucel (hydroxypropylcellulose) (HPC)): 121 % of control

SMILES: COC(=O)N1C2C3C(C)=C(C)C2(C)C3(C)S1(=O)=O (stereo unspecified)
- T/C (dose: 100.0 mg/kg/injection, schedule: Q01DX001 (ip), vehicle: Klucel (hydroxypropylcellulose) (HPC)): 93 % of control
- T/C [3]: 101 % of control
- T/C (dose: 200.0 mg/kg/injection, schedule: Q01DX001 (ip), vehicle: Klucel (hydroxypropylcellulose) (HPC)): 93 % of control
- T/C [4]: 106 % of control
- T/C (dose: 400.0 mg/kg/injection, schedule: Q01DX001 (ip), vehicle: Klucel (hydroxypropylcellulose) (HPC)): 97 % of control

SMILES: CC([NH-])=O.CC([NH-])=O.[Cl][Pt+2][Cl]
- T/C (dose: 50.0 mg/kg/injection, schedule: Q01DX009 (ip), vehicle: water): 120 % of control
- T/C (dose: 100.0 mg/kg/injection, schedule: Q01DX009 (ip), vehicle: water): 115 % of control
- T/C (dose: 100.0 mg/kg/injection, schedule: Q04DX003 (ip), vehicle: water): 114 % of control
- T/C (dose: 200.0 mg/kg/injection, schedule: Q04DX003 (ip), vehicle: water): 110 % of control

SMILES: CC12CCCC(O)(CC(=O)C1)C2 (stereo unspecified)
- T/C [5]: 93 % of control
- T/C (dose: 100.0 mg/kg/injection, schedule: Q04DX003 (ip), vehicle: acetone): 95 % of control
- T/C [6]: 95 % of control
- T/C (dose: 200.0 mg/kg/injection, schedule: Q04DX003 (ip), vehicle: acetone): 101 % of control
- T/C [7]: 91 % of control
- T/C (dose: 400.0 mg/kg/injection, schedule: Q04DX003 (ip), vehicle: acetone): 98 % of control

SMILES: Cn1c(=O)cc(CC(=O)C(=O)O)c2ccccc21
- T/C [2]: 88 % of control
- T/C [8]: 93 % of control
- T/C [9]: 93 % of control

SMILES: O=C1NC(=S)S/C1=C/c1ccc2c(c1)OCO2
- T/C (dose: 7.5 mg/kg/injection, schedule: Q01DX009 (ip), vehicle: saline with Tween-80): 93 % of control
- T/C (dose: 15.0 mg/kg/injection, schedule: Q01DX009 (ip), vehicle: saline with Tween-80): 88 % of control
- T/C (dose: 30.0 mg/kg/injection, schedule: Q01DX009 (ip), vehicle: saline with Tween-80): 89 % of control

SMILES: COc1cccc(CN(CCC(=O)O)Cc2cccc(OC)c2)c1
- T/C (dose: 100.0 mg/kg/injection, schedule: Q01DX009 (ip), vehicle: other): 100 % of control
- T/C (dose: 100.0 mg/kg/injection, schedule: Q04DX003 (ip), vehicle: other): 88 % of control
- T/C (dose: 200.0 mg/kg/injection, schedule: Q01DX009 (ip), vehicle: other): 102 % of control
- T/C (dose: 200.0 mg/kg/injection, schedule: Q04DX003 (ip), vehicle: other): 88 % of control
- T/C (dose: 400.0 mg/kg/injection, schedule: Q01DX009 (ip), vehicle: other): 102 % of control
- T/C (dose: 400.0 mg/kg/injection, schedule: Q04DX003 (ip), vehicle: other): 93 % of control

SMILES: O=C(CS(=O)(=O)C/C(=N\Nc1ccc([N+](=O)[O-])cc1)c1ccccc1)c1ccccc1
- T/C [10]: 101 % of control
- T/C [11]: 113 % of control
- T/C [12]: 104 % of control

SMILES: O=C1NC23CC=CCC12CCC3 (stereo unspecified)
- T/C (dose: 100.0 mg/kg/injection, schedule: Q04DX002 (ip), vehicle: saline): 100 % of control
- T/C (dose: 200.0 mg/kg/injection, schedule: Q04DX002 (ip), vehicle: saline): 93 % of control
- T/C (dose: 400.0 mg/kg/injection, schedule: Q04DX002 (ip), vehicle: saline): 109 % of control

SMILES: Cc1cc(Br)c(C)cc1Br
- T/C (dose: 50.0 mg/kg/injection, schedule: Q01DX001 (ip), vehicle: saline): 100 % of control
- T/C [2]: 100 % of control
- T/C [13]: 98 % of control
- T/C [3]: 100 % of control
- T/C [8]: 103 % of control
- T/C [14]: 93 % of control
- T/C [4]: 98 % of control
- T/C [9]: 103 % of control
- T/C [15]: 90 % of control
- T/C [16]: 100 % of control

SMILES: O=C(C[n+]1ccc2c([N+](=O)[O-])cccc2c1)c1ccccc1
- T/C (dose: 12.5 mg/kg/injection, schedule: Q04DX003 (ip), vehicle: Klucel (hydroxypropylcellulose) (HPC)): 98 % of control
- T/C (dose: 25.0 mg/kg/injection, schedule: Q04DX003 (ip), vehicle: Klucel (hydroxypropylcellulose) (HPC)): 105 % of control
- T/C (dose: 50.0 mg/kg/injection, schedule: Q04DX003 (ip), vehicle: Klucel (hydroxypropylcellulose) (HPC)): 103 % of control
- T/C [3]: 96 % of control

SMILES: OCC1(O)CCC1
- T/C [5]: 102 % of control
- T/C [10]: 94 % of control
- T/C [6]: 99 % of control
- T/C [11]: 103 % of control
- T/C [7]: 107 % of control
- T/C [12]: 96 % of control

SMILES: O=C(c1ccc(O)cc1O)c1cccc2ccccc12
- T/C [13]: 95 % of control
- T/C [3]: 93 % of control
- T/C [14]: 97 % of control
- T/C [4]: 95 % of control
- T/C [15]: 99 % of control
- T/C [16]: 93 % of control
